According to patent publication US9078444B2, “Isothiazoline derivatives as insecticidal compounds” (Syngenta Participations AG, priority 2011, dated 2015):
Where two headings read alike, the source gives them in different places.

How the values were obtained:
Assay type in all cases: in vivo
Diabrotica balteata = Diabrotica balteata (corn root worm) artificial diet test; details: 120 h, 200 ppm (concentration in well 18 ppm), L2 larvae, larval mortality and growth regulation after 5 days
Method: (§1) Diabrotica balteata (Corn Root Worm): A 24-well microtiter plate (MTP) with artificial diet was treated with test solutions at an application rate of 200 ppm (concentration in well 18 ppm) by pipetting. After drying, the MTPs were infested with L2 larvae (6-10 per well). After an incubation period of 5 days, samples were checked for larval mortality and growth regulation.

Plutella xylostella = Plutella xylostella (diamond back moth) artificial diet test; details: 144 h, 200 ppm (concentration in well 18 ppm), L2 larvae, larval mortality and growth regulation after 6 days
Method: as §1, with “Plutella xylostella (Diamond Back Moth):” for “Diabrotica balteata (Corn Root Worm): A”, “(7-12” for “(6-10”, “6” for “5”

Heliothis virescens = Heliothis virescens (tobacco budworm) egg test on artificial diet; details: 96 h, 200 ppm (concentration in well 18 ppm), eggs on artificial diet, egg mortality, larval mortality, growth regulation after 4 days
Method: Heliothis virescens (Tobacco Budworm): Eggs (0-24 h old) were placed in 24-well microtiter plate on artificial diet and treated with test solutions at an application rate of 200 ppm (concentration in well 18 ppm) by pipetting. After an incubation period of 4 days, samples were checked for egg mortality, larval mortality, and growth regulation.

Thrips tabaci = Thrips tabaci (onion thrips) sunflower leaf disc test; details: foliar, 168 h, 200 ppm sprayed on sunflower leaf discs, mixed ages, mortality after 7 days
Method: Thrips tabaci (Onion Thrips): Sunflower leaf discs were placed on agar in a 24-well microtiter plate and sprayed with test solutions at an application rate of 200 ppm. After drying, the leaf discs were infested with a thrips population of mixed ages. After an incubation period of 7 days, samples were checked for mortality.

Spodoptera littoralis [1] = assay: Spodoptera littoralis persistence test on sprayed cotton plants (increased safety profile / bio-degradability); details: for pest or weed control at 12.5 ppm: Spodoptera littoralis
Method: Biological Examples Showing Increased Safety Profile:
Spodoptera littoralis (Egyptian Cotton Leafworm)
Cotton plants in the 5th leaf stage (around 5 weeks old) are treated in an automated turn table spray chamber. Plants are stored in the greenhouse length during the whole test period.
2, 16 and optionally 10 days after treatment 4 leaves from each sample are excised, placed into 14 cm plastic petri dishes on wet filter paper. The infestation of 10 L3-Spodoptera littoralis is made immediately afterwards. After an incubation period of 6 days the samples are checked for mortality.
In the following series of experiments the compounds of the invention are compared with the corresponding isoxazoline analogues from the prior art on Spodoptera littoralis (Egyptian cotton leafworm) performed as described in the method above.

Spodoptera littoralis [2] = assay: Spodoptera littoralis (Egyptian cotton leafworm) cotton leaf disc test; details: foliar, 72 h, 200 ppm sprayed on cotton leaf discs, mortality, feeding behavior, growth regulation 3 days after treatment
Method: Spodoptera littoralis (Egyptian Cotton Leafworm): Cotton leaf discs were placed on agar in a 24-well microtiter plate and sprayed with test solutions at an application rate of 200 ppm. After drying, the leaf discs were infested with […]. The samples were checked for mortality, feeding behavior, and growth regulation 3 days after treatment (DAT).

Tetranychus urticae = Tetranychus urticae (two-spotted spider mite) bean leaf disc test; details: foliar, 192 h, 200 ppm sprayed on bean leaf discs, mixed ages, egg, larval and adult mortality 8 days later
Text: Tetranychus urticae (Two-Spotted Spider Mite): Bean leaf discs on agar in 24-well microtiter plates were sprayed with test solutions at an application rate of 200 ppm. After drying, the leaf discs are infested with mite populations of mixed ages. 8 days later, discs are checked for egg mortality, larval mortality, and adult mortality.

[3] = 48 h, 12.5 ppm on cotton plants, leaves excised 2 days after treatment, 10 L3 larvae, mortality after 6 days incubation, read-out: Control after 2 days/%
[4] = 384 h, 12.5 ppm on cotton plants, leaves excised 16 days after treatment, 10 L3 larvae, mortality after 6 days incubation, read-out: Control after 16 days/%

SMILES | pest or weed control at 200 ppm (Diabrotica balteata) [%] | pest or weed control at 200 ppm (Plutella xylostella) [%] | pest or weed control at 200 ppm (Heliothis virescens) [%] | pest or weed control at 200 ppm (Thrips tabaci) [%] | Control after 10 days/% (Spodoptera littoralis [1]; 12.5 ppm on cotton plants, leaves excised 10 days after treatment, 10 L3 larvae, mortality after 6 days incubation) [%] | pest or weed control at 12.5 ppm (Spodoptera littoralis [1]; 48 h, read-out: Control after 2 days/%) [%] | pest or weed control at 12.5 ppm (Spodoptera littoralis [1]; 384 h, read-out: Control after 16 days/%) [%] | pest or weed control at 200 ppm (Spodoptera littoralis [2]) [%] | pest or weed control at 200 ppm (Tetranychus urticae) [%] | pest or weed control at 12.5 ppm (Spodoptera littoralis [1]; [3]) [%] | pest or weed control at 12.5 ppm (Spodoptera littoralis [1]; [4]) [%]
Cc1cc(C2=NSC(c3cc(Cl)cc(Cl)c3)(C(F)(F)F)C2)ccc1C(=O)NC1CS(=O)(=O)C1 (stereo not shown) [Compound A02, 4-[5-(3,5-dichlorophenyl)-5-(trifluoromethyl)-4H-isothiazol-3-yl]-N-(1,1-dioxothietan-3-yl)-2-methyl-benzamide] | ≥ 80 | ≥ 80 | ≥ 80 | ≥ 80 | 35 | 100 | 5 | ≥ 80 | ≥ 80 | – | –
CO/N=C/NC(=O)c1ccc(C2=NSC(c3cc(Cl)cc(Cl)c3)(C(F)(F)F)C2)cc1Cl (stereo not shown) [Compound C3, 2-chloro-4-[5-(3,5-dichlorophenyl)-5-(trifluoromethyl)-4H-isothiazol-3-yl]-N-[(E)-methoxyiminomethyl]benzamide] | ≥ 80 | ≥ 80 | ≥ 80 | ≥ 80 | – | – | – | ≥ 80 | ≥ 80 | 100 | 0
Cc1cc(C2=NSC(c3cc(Cl)cc(Cl)c3)(C(F)(F)F)C2)ccc1C(=O)NCC(C)C (stereo not shown) [Compound A46] | ≥ 80 | ≥ 80 | ≥ 80 | ≥ 80 | – | – | – | ≥ 80 | ≥ 80 | 40 | 0
Cc1cc(C2=NSC(c3cc(Cl)cc(Cl)c3)(C(F)(F)F)C2)ccc1C(=O)Nc1ccc(F)cc1 (stereo not shown) [Compound A59] | ≥ 80 | ≥ 80 | ≥ 80 | ≥ 80 | – | – | – | ≥ 80 | ≥ 80 | 100 | 10
Cc1cc(C2=NSC(c3cc(Cl)cc(Cl)c3)(C(F)(F)F)C2)ccc1C(=O)NC(C)c1ccccc1 (stereo not shown) [Compound A12] | ≥ 80 | ≥ 80 | ≥ 80 | ≥ 80 | – | – | – | ≥ 80 | ≥ 80 | 30 | –
